Our source for the CC50 and IC50 values is PMC12817916, “A small-molecule HSP90 inhibitor, NVP-HSP990, alleviates rotavirus infection” (Journal of Virology, 2025).

One series concerns MA104 cells. Description: Cytotoxicity assay (CCK-8). Conditions: 24 h. It counts as cell-based, Rhesus monkey. As for the experimental part: (§1) To evaluate the cytotoxicity of different HSP90 inhibitors in vitro, 10,000 MA104 cells, 30,000 Caco-2 cells, and 80,000 HT-29 cells in 100 µL complete DMEM medium were seeded in 96-well plates and cultured at 37°C and 5% CO2 for 24 h to reach about 100% confluence, and a cell-free control was also set. After removing the initial medium, 100 µL of complete DMEM medium containing the indicated concentrations of drugs was added to each well, and the plates were incubated at 37°C and 5% CO2. Twenty-four hours later, the drug-containing medium was replaced with 100 µL fresh complete DMEM medium plus 10 µL 5 mM CCK-8 reagent (Beyotime, China), and OD450 absorbance of each well was detected 3 h later using a microplate reader (Gene Company Limited, China). Relative cell viability rate = OD450 (drug-treated cells − cell-free control) / OD450 (0 µM drug-treated cells − cell-free control).
(§2) The 50% cytotoxic concentration (CC50) values were determined by nonlinear regression (curve fit) analysis in GraphPad Prism 9.0 (GraphPad Software). Dose-response data (drug concentrations as X-axis and normalized cell viability percentages as Y-axis) were fitted to a Dose-response Inhibition model ("[Inhibitor] vs. normalized response-Variable slope"). The curve was constrained to a bottom limit of 0% viability. The CC50 value was automatically calculated as the X-intercept at Y=50%. Model adequacy was validated using goodness-of-fit metrics (R²≥0.95), 95% confidence intervals, and residual distribution analysis. Final CC50 values were derived from three independent biological replicates and reported as mean ± SEM.

The nature of series [1]: Cytotoxicity assay (CCK-8). It counts as cell-based, Rhesus monkey. As to conditions: rhesus monkey. The method, then:
as §1, §2

For a further series, the system named is RV Wa (G1P[8]) strain. Briefly: In vitro assay of RV replication inhibition (PFA). The format is cell-based, Rotavirus. Conditions: Rotavirus. As for the experimental part:
(§3) For analysis of effects of different […] on RV replication in vitro, 10,000 MA104 cells, 30,000 Caco-2 cells, and 80,000 HT-29 cells in 100 µL complete DMEM medium were seeded in 96-well plates and cultured at 37°C and 5% CO2 for 24 h. Then the cells were infected with RV Wa or SA11 strains (MOI = 1 (PFU/cell)) for 1 h. After removing the viruses and washing cells two times with DMEM, 100 µL DMEM containing the indicated concentrations of drugs was added to each well, and the plates were incubated at 37°C and 5% CO2. At 24 h p.i., the infected cells and culture medium were collected, frozen/thawed twice, and subjected to centrifugation at 1,000 × g for 3 min at room temperature. Then, the supernatant was subjected to analysis of viral load by PFA. […] Dose-response data (drug concentrations as x-axis and normalized inhibition percentages as y-axis) were fitted to a dose-response inhibition model ([Inhibitor] vs normalized response – Variable slope). […] Model adequacy was validated using goodness-of-fit metrics (R^2 ≥ 0.95), 95% confidence intervals, and residual distribution analysis.
(§4) Wa/SA11 strains were titrated by PFA, which was carried out as described (3) with some modification. Briefly, confluent monolayers of MA104 cells in 24-well tissue culture plates were infected with 100 µL supernatants containing infectious RV particles which were serially diluted (10^1, 10^2, 10^3, and 10^4) with DMEM containing 1 µg/mL trypsin and penicillin (10,000 U/mL)-streptomycin (5 µg/mL) (DMEM-T) for 1 h at 37°C. Then 400 µL agarose overlay (0.8% agarose in 1×DMEM-T) was added and the plates were incubated at 37℃ and 5% CO2 for 5 days. The cells in each well were fixed by 1 mL 4% paraformaldehyde (Sangon Biotech, China) overnight (> 12 h) at room temperature. Then, the paraformaldehyde and agarose were removed and the monolayers were stained with 0.5 ml of a 1% (v/v) crystal violet (Sangon Biotech, China) diluted in distilled water for 10 min at room temperature. Then, the plates were drained and dried, and the plaques were enumerated. As the EDIM strain is not able to grow in cell culture, it was titrated by qPCR analysis as described (4) with EDIM VP6 gene as the target.

Another series relates to RV SA11 (G3P[2]) strain. Description: In vitro assay of RV replication inhibition (PFA). It counts as cell-based, Rotavirus. Conditions: Rotavirus. The method, then:
as §3, §4

For the next series, the system named is Caco-2 cells. Briefly: Cytotoxicity assay (CCK-8). It counts as cell-based, Human. As to conditions: 24 h. The method, then:
as §1, §2

For the next series, the system named is HT-29 cells. Briefly: Cytotoxicity assay (CCK-8). The format is cell-based, Human. Conditions: 24 h. The method, then:
as §1, §2

Series [2] is described as follows: Cytotoxicity assay (CCK-8). It counts as cell-based, Human. Conditions: human. As for the experimental part:
as §1, §2

The mark [3] stands for this setting: Caco-2, 24 h, read-out: IC50 (Fig 1B plot).
Setting [4] is: HT-29, 24 h, read-out: IC50 (Fig 1B plot).
The mark [5] stands for this setting: MA104, 24 h, read-out: IC50 (Fig 1B plot).

Where two headings read alike, the source gives them in different places.

As for `C=CCNC1=C2C[C@@H](C)C[C@H](OC)[C@H](O)[C@@H](C)/C=C(\C)[C@H](OC(N)=O)[C@@H](OC)/C=C\C=C(/C)C(=O)NC(=CC1=O)C2=O` [17-AAG, 17-allylamino-17-demethoxygeldanamycin], the CC50 (as a rule, the concentration giving 50% cytotoxicity) with MA104 cells (MA104 cells, CCK-8, read-out: CC50) turned out to be 23300 ± 6720 nM; with Caco-2 cells (Caco-2 cells, CCK-8, read-out: CC50) it was 28600 ± 9730 nM; with HT-29 cells (HT-29 cells, CCK-8, read-out: CC50), 20700 ± 6030 nM. For the same compound, the CC50 at 24 h is less than 40000 nM in series [1] (MA104 cells, 24 h, CCK-8, read-out: CC50); less than 40000 nM in series [2] (Caco-2 cells, CCK-8); less than 40000 nM in series [2] (HT-29 cells, 24 h, CCK-8, read-out: CC50). Further, the IC50 (as a rule, the point on the concentration scale where inhibition reaches its midpoint) with RV Wa (G1P[8]) strain (Caco-2, 24 h) is 162 ± 34.2 nM; in the series with RV Wa (G1P[8]) strain (setting [3]), 172 nM; in the series on RV Wa (G1P[8]) strain (HT-29, 24 h), 26.4 ± 20.5 nM; in the series with RV Wa (G1P[8]) strain (setting [4]) it was 21.9 nM; in the series with RV Wa (G1P[8]) strain (MA104, 24 h), 6.81 ± 2.18 nM; in the series with RV Wa (G1P[8]) strain (setting [5]), 6.58 nM. Besides, the concentration for half-maximal inhibition (IC50) was found to be 116 ± 33.3 nM with RV SA11 (G3P[2]) strain (Caco-2, 24 h); 113 nM with RV SA11 (G3P[2]) strain (setting [3]); 54 ± 7.14 nM with RV SA11 (G3P[2]) strain (HT-29, 24 h); 53.9 nM in the series with RV SA11 (G3P[2]) strain (setting [4]); 3.52 ± 0.6 nM in the series with RV SA11 (G3P[2]) strain (MA104, 24 h); 3.51 nM with RV SA11 (G3P[2]) strain (setting [5]).

As to `COC1=C2C[C@@H](C)C[C@H](OC)[C@H](O)[C@@H](C)/C=C(\C)[C@H](OC(N)=O)[C@@H](OC)/C=C\C=C(/C)C(=O)NC(=CC1=O)C2=O` [GA, geldanamycin], the figures for the CC50 in the series on MA104 cells (rhesus monkey), with Caco-2 cells (human) and in the series with HT-29 cells (human) were 26600 ± 5550 nM, 20000 ± 3070 nM and 29200 ± 5060 nM, respectively. Besides, the cytotoxic concentration (CC50) at 24 h in series [1] (CC50) and in series [2] (CC50) was less than 40000 nM throughout. Besides, the IC50 with RV Wa (G1P[8]) strain (Wa strain in Caco-2 cells, MOI = 1, 24 h p.i., PFA, read-out: IC50) turned out to be 91.7 ± 6.95 nM; with RV Wa (G1P[8]) strain (Wa strain in Caco-2 cells, representative experiment, 24 h, PFA, read-out: IC50 (Fig 1B plot)), 92 nM; in the series on RV Wa (G1P[8]) strain (Wa strain in HT-29 cells, MOI = 1, 24 h p.i., PFA, read-out: IC50), 16.5 ± 4.41 nM; in the series with RV Wa (G1P[8]) strain (Wa strain in HT-29 cells, representative experiment, 24 h, PFA, read-out: IC50 (Fig 1B plot)) it was 16.1 nM; with RV Wa (G1P[8]) strain (Wa strain in MA104 cells, MOI = 1, 24 h p.i., PFA, read-out: IC50), 10.5 ± 3.57 nM; in the series on RV Wa (G1P[8]) strain (Wa strain in MA104 cells, representative experiment, 24 h, PFA, read-out: IC50 (Fig 1B plot)), 10.1 nM. Also, the IC50 turned out to be 83.8 ± 20.6 nM in the series on RV SA11 (G3P[2]) strain (SA11 strain in Caco-2 cells, MOI = 1, 24 h p.i., PFA, read-out: IC50); 83.7 nM in the series on RV SA11 (G3P[2]) strain (SA11 strain in Caco-2 cells, representative experiment, 24 h, PFA, read-out: IC50 (Fig 1B plot)); 48.2 ± 34.8 nM with RV SA11 (G3P[2]) strain (SA11 strain in HT-29 cells, MOI = 1, 24 h p.i., PFA, read-out: IC50); 41.6 nM in the series with RV SA11 (G3P[2]) strain (SA11 strain in HT-29 cells, representative experiment, 24 h, PFA, read-out: IC50 (Fig 1B plot)); 3.01 ± 0.77 nM in the series on RV SA11 (G3P[2]) strain (SA11 strain in MA104 cells, MOI = 1, 24 h p.i., PFA, read-out: IC50); 2.94 nM in the series on RV SA11 (G3P[2]) strain (SA11 strain in MA104 cells, representative experiment, 24 h, PFA, read-out: IC50 (Fig 1B plot)).
